# Values joined by “and” are separate entries in the source; they are usually repeats but may differ in a detail not shown here. Equal entries are not always repeated.
# Test system: 628569-122-R-J1-PDC complex spheroid viability
# Test: Anticancer human tumor 628569-122-R-J1-PDC patient-derived head and neck squamous carcinoma cell line growth inhibition [CLK]
# Conditions: for viability, T/C: stronger effect = lower value
# How it was run: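 Multi-cell-type spheroids combined patient-derived tumor cells with HUVEC endothelial cells and human mesenchymal stem cells. Paired agents were dosed in half-log steps down from about clinical Cmax, or from 10 microM where Cmax was unknown.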
# [1] = curve of first compound, second compound 0.0316 µM
# [2] = curve of first compound, second compound 0.1 µM
# [3] = curve of first compound, second compound 0.316 µM
# [4] = curve of first compound, second compound 1 µM
# [5] = curve of first compound, second compound 3.16 µM
# [6] = curve of first compound, second compound 10 µM
# [7] = second compound 0.0316 µM, first compound 0.0316 µM
# [8] = second compound 0.0316 µM, first compound 0.1 µM
# [9] = second compound 0.0316 µM, first compound 0.316 µM
# [10] = second compound 0.0316 µM, first compound 1 µM
# [11] = second compound 0.1 µM, first compound 0.0316 µM
# [12] = second compound 0.1 µM, first compound 0.1 µM
# [13] = second compound 0.1 µM, first compound 0.316 µM
# [14] = second compound 0.1 µM, first compound 1 µM
# [15] = second compound 0.316 µM, first compound 0.0316 µM
# [16] = second compound 0.316 µM, first compound 0.1 µM
# [17] = second compound 0.316 µM, first compound 0.316 µM
# [18] = second compound 0.316 µM, first compound 1 µM
# [19] = second compound 1 µM, first compound 0.0316 µM
# [20] = second compound 1 µM, first compound 0.1 µM
# [21] = second compound 1 µM, first compound 0.316 µM
# [22] = second compound 1 µM, first compound 1 µM
# [23] = second compound 3.16 µM, first compound 0.0316 µM
# [24] = second compound 3.16 µM, first compound 0.1 µM
# [25] = second compound 3.16 µM, first compound 0.316 µM
# [26] = second compound 3.16 µM, first compound 1 µM
# [27] = second compound 10 µM, first compound 0.0316 µM
# [28] = second compound 10 µM, first compound 0.1 µM
# [29] = second compound 10 µM, first compound 0.316 µM
# [30] = second compound 10 µM, first compound 1 µM
# 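Note: spheroids exposed to agents for seven days before readout.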
# 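Throughout, for viability, T/C: 100% = DMSO vehicle control viability.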
smiles,measurement,setting,value
COc1c(OCCCN2CCOCC2)ccc2c3n(c(=NC(=O)c4cnc(N)nc4)nc12)CCN3 + CNC(=O)c1ccc(Nc2nc(OC3CCCC3)c3c(-c4ccc5nc(C)oc5c4)c[nH]c3n2)c(OC)c1,IC50,[1],23.4 nM
same,IC50,[2],< 3.16 nM
same,IC50,[3],< 3.16 nM
same,IC50,[4],< 3.16 nM
same,IC50,[5],< 3.16 nM
same,IC50,[6],< 3.16 nM
same,"viability, T/C","second compound 0.0316 µM, first compound 0.00316 µM",83.1%
same,"viability, T/C","second compound 0.0316 µM, first compound 0.01 µM",66.5%
same,"viability, T/C",[7],43.5%
same,"viability, T/C",[8],25.6%
same,"viability, T/C",[9],20.6%
same,"viability, T/C",[10],5.3%
same,"viability, T/C","second compound 0.1 µM, first compound 0.00316 µM",46.8%
same,"viability, T/C","second compound 0.1 µM, first compound 0.01 µM",46.2%
same,"viability, T/C",[11],28.7%
same,"viability, T/C",[12],22%
same,"viability, T/C",[13],19.6%
same,"viability, T/C",[14],8.28%
same,"viability, T/C","second compound 0.316 µM, first compound 0.00316 µM",48.3%
same,"viability, T/C","second compound 0.316 µM, first compound 0.01 µM",47.7%
same,"viability, T/C",[15],29.8%
same,"viability, T/C",[16],17.1%
same,"viability, T/C",[17],16.2%
same,"viability, T/C",[18],6.59%
same,"viability, T/C","second compound 1 µM, first compound 0.00316 µM",37.8%
same,"viability, T/C","second compound 1 µM, first compound 0.01 µM",34.3%
same,"viability, T/C",[19],27.3%
same,"viability, T/C",[20],23.5%
same,"viability, T/C",[21],13.9%
same,"viability, T/C",[22],3.21%
same,"viability, T/C","second compound 3.16 µM, first compound 0.00316 µM",41.6%
same,"viability, T/C","second compound 3.16 µM, first compound 0.01 µM",34.7%
same,"viability, T/C",[23],27.4%
same,"viability, T/C",[24],15.4%
same,"viability, T/C",[25],5.46%
same,"viability, T/C",[26],3.02%
same,"viability, T/C","second compound 10 µM, first compound 0.00316 µM",37.5%
same,"viability, T/C","second compound 10 µM, first compound 0.01 µM",28.5%
same,"viability, T/C",[27],30.3%
same,"viability, T/C",[28],12.8%
same,"viability, T/C",[29],21.6%
same,"viability, T/C",[30],7.07%
C=CC(=O)Nc1cc(Nc2nccc(-c3cn(C)c4ccccc34)n2)c(OC)cc1N(C)CCN(C)C,"viability, T/C",compound 0.000949 µM,81.8% and 77.8%
same,"viability, T/C",compound 0.003 µM,105% and 86.5%
same,"viability, T/C",compound 0.00949 µM,92.6% and 78.3%
same,"viability, T/C",compound 0.03 µM,73.7% and 73.6%
same,"viability, T/C",compound 0.0949 µM,98.9% and 71.4%
same,"viability, T/C",compound 0.3 µM,71.7% and 55.5%
same,IC50,curve of compound,> 300 nM
COC1C=CCC(C)C(C)S(=O)(=O)NC(=O)c2ccc3c(c2)N(CC2CCC21)CC1(CCCc2cc(Cl)ccc21)CO3 (stereo unspecified) + CNC(=O)c1ccc(Nc2nc(OC3CCCC3)c3c(-c4ccc5nc(C)oc5c4)c[nH]c3n2)c(OC)c1,IC50,[1],2000 nM
same,IC50,[2],142 nM
same,IC50,[3],< 31.6 nM
same,IC50,[4],< 31.6 nM
same,IC50,[5],< 31.6 nM
same,IC50,[6],< 31.6 nM
same,"viability, T/C",[7],103%
same,"viability, T/C",[8],87.7%
same,"viability, T/C",[9],64.8%
same,"viability, T/C",[10],55.4%
same,"viability, T/C","second compound 0.0316 µM, first compound 3.16 µM",48.4%
same,"viability, T/C","second compound 0.0316 µM, first compound 10 µM",43.5%
same,"viability, T/C",[11],58.7%
same,"viability, T/C",[12],51%
same,"viability, T/C",[13],47.7%
same,"viability, T/C",[14],40.3%
same,"viability, T/C","second compound 0.1 µM, first compound 3.16 µM",34.8%
same,"viability, T/C","second compound 0.1 µM, first compound 10 µM",34.3%
same,"viability, T/C",[15],46.3%
same,"viability, T/C",[16],49.7%
same,"viability, T/C",[17],36.7%
same,"viability, T/C",[18],33.1%
same,"viability, T/C","second compound 0.316 µM, first compound 3.16 µM",35.8%
same,"viability, T/C","second compound 0.316 µM, first compound 10 µM",33.4%
same,"viability, T/C",[19],51.2%
same,"viability, T/C",[20],45.9%
same,"viability, T/C",[21],36.9%
same,"viability, T/C",[22],35.9%
same,"viability, T/C","second compound 1 µM, first compound 3.16 µM",46%
same,"viability, T/C","second compound 1 µM, first compound 10 µM",34.6%
same,"viability, T/C",[23],43.2%
same,"viability, T/C",[24],41.1%
same,"viability, T/C",[25],33.4%
same,"viability, T/C",[26],29.4%
same,"viability, T/C","second compound 3.16 µM, first compound 3.16 µM",30.9%
same,"viability, T/C","second compound 3.16 µM, first compound 10 µM",25.4%
same,"viability, T/C",[27],40.1%
same,"viability, T/C",[28],38.4%
same,"viability, T/C",[29],32.1%
same,"viability, T/C",[30],30.5%
same,"viability, T/C","second compound 10 µM, first compound 3.16 µM",35.9%
same,"viability, T/C","second compound 10 µM, first compound 10 µM",26.4%
